Measured values taken from ChEMBL document CHEMBL4706602, “β-lactam antibiotics: An overview from a medicinal chemistry perspective” (Eur J Med Chem, 2020).

Experiments:
[1] = Half life in human at 600 mg, iv administered every 12 hrs as 1 hr infusion; type: ADME, organism-based; details: in vivo
[2] = Protein binding in plasma (unknown origin); type: ADME, cell-free; details: read-out: PPB (converted)
[3] = Oral bioavailability in human; type: ADME, organism-based; details: in vivo
[4] = Bioavailability in human at 500 mg, IM; type: ADME, organism-based; details: in vivo
[5] = Drug excretion in human urine assessed as unaltered drug; type: ADME; details: read-out: Drug excretion
[6] = Elimination half life in human at 1 g, iv infusion for 30 mins; type: ADME, organism-based; details: in vivo, read-out: beta t1/2 (converted)
[7] = Chemical stability of compound assessed as compound degradation at 37 degreeC measured for 24 hrs; type: physicochemical; details: read-out: Drug degradation
[8] = Half life of compound; type: physicochemical
[9] = Half life of compound in human; type: ADME

## CCO/N=C(\C(=O)N[C@@H]1C(=O)N2C(C(=O)O)=C(Sc3nc(-c4cc[n+](C)cc4)cs3)CS[C@H]12)c1nsc(NP(=O)(O)O)n1.[Na+]
[1]
  half-life: 1.6 h

## CC1(C)S[C@@H]2[C@H](NC(=O)[C@H](N)c3ccc(O)cc3)C(=O)N2[C@H]1C(=O)O [AMOXICILLIN]
[2]
  fraction unbound: 0.7

## Cc1onc(-c2ccccc2)c1C(=O)N[C@@H]1C(=O)N2[C@@H]1SC(C)(C)[C@@H]2C(=O)O [OXACILLIN]
[2]
  fraction unbound: 0.1

## Cc1onc(-c2ccccc2Cl)c1C(=O)N[C@@H]1C(=O)N2[C@@H]1SC(C)(C)[C@@H]2C(=O)O [CLOXACILLIN]
[2]
  fraction unbound: 0.1

## C[C@H]1[C@H](NC(=O)/C(=N\OC(C)(C)C(=O)O)c2csc(N)n2)C(=O)N1S(=O)(=O)O [AZTREONAM]
[3]
  bioavailability: 1%
[4]
  bioavailability: 100%
[5]
  dose excreted: 68%

## C[C@@H](O)[C@H]1C(=O)N2C(C(=O)O)=C(S[C@@H]3CN[C@H](C(=O)N(C)C)C3)[C@H](C)[C@H]12 [MEROPENEM]
[6]
  half-life: 1 h
[7]
  degraded at 24 h: 60%

## CC1(C)S[C@@H]2[C@H](NC(=O)Cc3ccccc3)C(=O)N2[C@H]1C(=O)O [PENICILLIN G]
[8]
  half-life: 0.333 h
[2]
  fraction unbound: 0.4

## CC1(C)S[C@@H]2[C@H](NC(=O)C(C(=O)O)c3ccccc3)C(=O)N2[C@H]1C(=O)O (some centres not stated) [CARBENICILLIN]
[9]
  half-life: 1 h
